Where two headings read alike, the source gives them in different places.
What was measured:
GDP-loaded KRAS-G12C = GDP-loaded KRAS-G12C (Homo sapiens, UniProt P01116, G12C); experiment: KRAS (GDP) biochemical TR-FRET probe displacement assay, G12C; type: binding; conditions: 2 hours
Procedure: (§1) Compounds are tested for binding to GDP-loaded wild-type KRAS (WT), KRAS-G12C, KRAS-G12D, and KRAS-G12V in a 384-well assay format using a TR-FRET probe displacement assay in buffer consisting of 50 mM Hepes (pH 7.4), 150 mM NaCl, 5 mM MgCl2 and 0.005% Tween-20. […] Compounds are serially diluted (1:3) in DMSO. The LabCyte ECHO Acoustic dispenser was used to pre-spot the assay plates (384-well Non-Binding Surface plates, Corning, Catalog #3824) with 50 nL of compound. 5 μL of 2X enzyme concentration is added to the pre-spotted plates and incubated for 30 minutes before adding 5 μL of 2X concentration of Eu-streptavidin and Cy-5 labelled probe (10 μL final reaction volume). The plates are incubated at room temperature for 2 hours before measuring TR-FRET ratio (665 nm/615 nm) on the Envision multimode plate reader. The ratios are normalized to a positive (saturating concentration of known inhibitor) and negative (DMSO) control and plotted against the log of compound concentration.

[1] = system: cellular pERK in NCI-H441 (KRAS-G12V) cells; experiment: Cell based pERK assay, NCI-H441; conditions: Homo sapiens, read-out: H441 PERK EC50
In short: (§2)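 Cells seeded overnight (5000 AsPC-1 or 7500 others per well; RPMI/10% FBS, DMEM/10% FBS for MIA-PaCa-2), treated with 1:3 serial dilutions for 2 h at 37 °C. Phospho-ERK1/2 (Thr202/Tyr204) measured by HTRF (665/615 nm) after overnight lysis, normalized to DMSO and saturating known-inhibitor controls.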

[2] = system: cellular pERK in Kuramochi (WT KRAS) cells; experiment: Cell based pERK assay, Kuramochi; conditions: read-out: Kuramochi pERK EC50
In short: as §2

[3] = system: cellular pERK in MIA-PaCa-2 (KRAS-G12C) cells; experiment: Cell based pERK assay, MIA-PaCa-2; conditions: Homo sapiens, read-out: MIAPaCa2 pERK EC50
In short: as §2

[4] = system: cellular pERK in ASPC-1 (KRAS G12D) cells; experiment: Cell based pERK assay, ASPC-1; conditions: Homo sapiens, read-out: AsPC1 pERK EC50
In short: as §2

[5] = biological target: GDP-loaded wild-type KRAS (WT) (Homo sapiens, UniProt P01116); experiment: KRAS (GDP) biochemical TR-FRET probe displacement assay, WT; type: binding; conditions: 2 hours
Procedure: as §1

GDP-loaded KRAS-G12V = GDP-loaded KRAS-G12V (Homo sapiens, UniProt P01116, G12V); experiment: KRAS (GDP) biochemical TR-FRET probe displacement assay, G12V; type: binding; conditions: 2 hours
Procedure: as §1

GDP-loaded KRAS-G12D = GDP-loaded KRAS-G12D (Homo sapiens, UniProt P01116, G12D); experiment: KRAS (GDP) biochemical TR-FRET probe displacement assay, G12D; type: binding; conditions: 2 hours
Procedure: as §1

[6] = NCI-H441 (KRAS-G12V), 2 hours incubation, HTRF phospho-ERK1/2
[7] = Kuramochi (WT KRAS), 2 hours incubation, HTRF phospho-ERK1/2
[8] = MIA-PaCa-2 (KRAS-G12C), 2 hours incubation, HTRF phospho-ERK1/2
[9] = ASPC1, ASPC-1 (KRAS G12D), 2 hours incubation, HTRF phospho-ERK1/2

Chain of GDP-loaded KRAS-G12V (P01116 1-188 isoform P01116-2 G12V): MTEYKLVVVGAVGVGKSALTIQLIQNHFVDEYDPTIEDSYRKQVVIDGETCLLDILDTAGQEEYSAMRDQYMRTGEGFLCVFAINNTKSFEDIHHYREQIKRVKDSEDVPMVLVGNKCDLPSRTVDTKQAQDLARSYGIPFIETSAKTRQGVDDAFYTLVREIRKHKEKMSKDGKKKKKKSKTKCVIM
Chain of GDP-loaded KRAS-G12D (P01116 1-188 isoform P01116-2 G12D): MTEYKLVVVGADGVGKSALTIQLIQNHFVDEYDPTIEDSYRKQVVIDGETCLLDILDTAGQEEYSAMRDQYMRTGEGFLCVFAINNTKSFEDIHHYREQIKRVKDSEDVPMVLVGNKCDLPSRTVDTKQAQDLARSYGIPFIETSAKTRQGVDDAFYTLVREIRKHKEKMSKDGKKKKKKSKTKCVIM
Chain of GDP-loaded KRAS-G12C (P01116 1-188 isoform P01116-2 G12C): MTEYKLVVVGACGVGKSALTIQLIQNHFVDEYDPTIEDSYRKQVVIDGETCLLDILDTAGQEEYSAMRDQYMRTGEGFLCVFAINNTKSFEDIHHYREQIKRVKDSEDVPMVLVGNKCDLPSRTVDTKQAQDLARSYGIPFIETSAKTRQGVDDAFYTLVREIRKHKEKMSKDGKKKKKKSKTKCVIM
Chain of GDP-loaded wild-type KRAS (WT) (P01116 1-188 isoform P01116-2): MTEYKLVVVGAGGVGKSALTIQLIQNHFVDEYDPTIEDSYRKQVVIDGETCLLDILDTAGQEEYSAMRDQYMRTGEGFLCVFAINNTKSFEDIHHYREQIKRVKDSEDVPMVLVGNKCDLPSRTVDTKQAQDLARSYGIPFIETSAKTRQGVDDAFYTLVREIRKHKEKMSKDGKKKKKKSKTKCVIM

SMILES: Cc1c(F)c(N)cc(-c2nc3c4c(nc(OC[C@@]56CCCN5C[C@H](F)C6)nc4c2F)N2C[C@@]4(F)CC[C@](F)(N4)[C@H]2CCC3)c1C(F)(F)F [Example 4-4]
- IC50 (GDP-loaded KRAS-G12C): 46.7 nM
- EC50 [1, 6]: 884 nM
- EC50 [2, 7]: 15.4 nM
- EC50 [3, 8]: 59.4 nM
- EC50 [4, 9]: 175 nM
- IC50 [5]: 25.8 nM
- IC50 (GDP-loaded KRAS-G12V): 45.1 nM
- IC50 (GDP-loaded KRAS-G12D): > 100 nM

SMILES: C[C@H]1Cc2nc(-c3cc(O)cc4ccc(F)c(F)c34)c(F)c3nc(OCC45CCCN4CCC5)nc(c23)N2C[C@@]3(F)CC[C@](F)(N3)[C@H]12 [Example 4-12, 5,6-difluoro-4-((5S,5aS,6R,9S)-1,6,9-trifluoro-5-methyl-12-((tetrahydro-1H-pyrrolizin-7a(5H)-yl)methoxy)-4,5,5a,6,7,8,9,10-octahydro-3,10a,11,13,14-pentaaza-6,9-methanonaphtho[1,8-ab]eptalene-2-yl)naphthalen-2-ol]
- IC50 (GDP-loaded KRAS-G12C): 0.172 nM
- EC50 ([1]; NCI-H441, 2 h): 3.7 nM
- EC50 ([2]; 2 h): 1.71 nM
- EC50 ([3]; MIA PaCa-2, 2 h): 0.944 nM
- EC50 ([4]; ASPC1, 2 h): 29 nM
- IC50 [5]: 0.086 nM
- IC50 (GDP-loaded KRAS-G12V): 0.353 nM
- IC50 (GDP-loaded KRAS-G12D): 1.16 nM

SMILES: Cc1c(F)c(N)cc(-c2nc3c4c(nc(OCC56CCCN5CCC6)nc4c2F)N2C[C@@]4(F)CC[C@](F)(N4)[C@@H]2[C@@H](C)C3)c1C(F)(F)F [Example 4-13, 2-fluoro-3-methyl-5-((5S,5aS,6R,9S)-1,6,9-trifluoro-5-methyl-12-((tetrahydro-1H-pyrrolizin-7a(5H)-yl)methoxy)-4,5,5a,6,7,8,9,10-octahydro-3,10a,11,13,14-pentaaza-6,9-methanonaphtho[1,8-ab]heptalen-2-yl)-4-(trifluoromethyl)aniline]
- IC50 (GDP-loaded KRAS-G12C): 3.81 nM
- EC50 [1, 6]: 18.3 nM
- EC50 [2, 7]: 2.77 nM
- EC50 [3, 8]: 5.66 nM
- EC50 [4, 9]: 109 nM
- IC50 [5]: 0.411 nM
- IC50 (GDP-loaded KRAS-G12V): 8.04 nM
- IC50 (GDP-loaded KRAS-G12D): 20.2 nM

SMILES: C[C@H]1Cc2nc(-c3ccc(F)c4sc(N)c(C#N)c34)c(F)c3nc(OCC45CCCN4CCC5)nc(c23)N2C[C@@]3(F)CC[C@](F)(N3)[C@H]12 [Example 4-14, 2-amino-7-fluoro-4-((5S,5aS,6R,9S)-1,6,9-trifluoro-5-methyl-12-((tetrahydro-1H-pyrrolizin-7a(5H)-yl)methoxy)-4,5,5a,6,7,8,9,10-octahydro-3,10a,11,13,14-pentaaza-6,9-methanonaphtho[1,8-ab]heptalen-2-yl)benzo[b]thiophene-3-carbonitrile]
- IC50 (GDP-loaded KRAS-G12C): 0.534 nM
- EC50 [1, 6]: 5.29 nM
- EC50 [2, 7]: 10.6 nM
- EC50 [3, 8]: 1.15 nM
- EC50 [4, 9]: 40.2 nM
- IC50 [5]: 0.321 nM
- IC50 (GDP-loaded KRAS-G12V): 0.537 nM
- IC50 (GDP-loaded KRAS-G12D): 1.15 nM

SMILES: N#Cc1c(N)sc2c(F)ccc(-c3nc4c5c(nc(OC[C@@]67CCCN6C[C@H](F)C7)nc5c3F)N3C[C@@]5(F)CC[C@](F)(N5)[C@@H]3CC4)c12 [Example 4-21, 2-amino-7-fluoro-4-((5aS,6R,9S)-1,6,9-trifluoro-12-(((2R,7aS)-2-fluorotetrahydro-1H-pyrrolizin-7a(5H)-yl)methoxy)-4,5,5a,6,7,8,9,10-octahydro-3,10a,11,13,14-pentaaza-6,9-methanonaphtho[1,8-ab]heptalen-2-yl)benzo[b]thiophene-3-carbonitrile]
- IC50 (GDP-loaded KRAS-G12C): 0.363 nM
- EC50 [1, 6]: 1.1 nM
- EC50 [2, 7]: 1.73 nM
- EC50 [3, 8]: 0.313 nM
- EC50 [4, 9]: 5.96 nM
- IC50 [5]: 0.18 nM
- IC50 (GDP-loaded KRAS-G12V): 0.844 nM
- IC50 (GDP-loaded KRAS-G12D): 2.32 nM

SMILES: Oc1cc(-c2nc3c4c(nc(OCC56CCCN5CCC6)nc4c2F)N2C[C@@]4(F)CC[C@](F)(N4)[C@H]2CCC3)c2c(OC(F)(F)F)c(F)ccc2c1 [Example 4-23, 6-fluoro-4-[(4S,7R,8R)-4,7,15-trifluoro-18-(1,2,3,5,6,7-hexahydropyrrolizin-8-ylmethoxy)-2,13,17,19,21-pentazapentacyclo[10.7.1.14,7.02,8.016,20]henicosa-1(19),12(20),13,15,17-pentaen-14-yl]-5-(trifluoromethoxy)naphthalen-2-ol]
- IC50 (GDP-loaded KRAS-G12C): 0.592 nM
- EC50 [1, 6]: 6.87 nM
- EC50 [2, 7]: 2.6 nM
- EC50 [3, 8]: 1.19 nM
- EC50 [4, 9]: 51.4 nM
- IC50 [5]: 0.502 nM
- IC50 (GDP-loaded KRAS-G12V): 2.14 nM
- IC50 (GDP-loaded KRAS-G12D): 3.65 nM

SMILES: Cn1ccc2cc(N)cc(-c3nc4c5c(nc(OCC67CCCN6CCC7)nc5c3F)N3C[C@@]5(F)CC[C@](F)(N5)[C@H]3CCC4)c2c1=O [Example 4-25]
- IC50 (GDP-loaded KRAS-G12C): > 100 nM
- EC50 [1, 6]: > 1000 nM
- EC50 [2, 7]: > 1000 nM
- EC50 [3, 8]: > 1000 nM
- EC50 [4, 9]: > 1000 nM
- IC50 [5]: > 100 nM
- IC50 (GDP-loaded KRAS-G12V): > 100 nM
- IC50 (GDP-loaded KRAS-G12D): > 100 nM

SMILES: C/C=C\c1c(Cl)cc2[nH]ncc2c1-c1nc2c3c(nc(OCC45CCCN4CCC5)nc3c1F)N1C[C@@]3(F)CC[C@](F)(N3)[C@H]1CCC2 [Example 4-26, (4S,7R,8R)-14-[6-chloro-5-[(Z)-prop-1-enyl]-1H-indazol-4-yl]-4,7,15-trifluoro-18-(1,2,3,5,6,7-hexahydropyrrolizin-8-ylmethoxy)-2,13,17,19,21-pentazapentacyclo[10.7.1.14,7.02,8.016,20]henicosa-1(19),12(20),13,15,17-pentaene]
- IC50 (GDP-loaded KRAS-G12C): 1.24 nM
- EC50 [1, 6]: 31.4 nM
- EC50 [2, 7]: 4.34 nM
- EC50 [3, 8]: 0.785 nM
- EC50 [4, 9]: 45.4 nM
- IC50 [5]: 1.85 nM
- IC50 (GDP-loaded KRAS-G12V): 4.33 nM
- IC50 (GDP-loaded KRAS-G12D): 6.69 nM

SMILES: C#Cc1c(F)ccc2cc(N)cc(-c3nc4c5c(nc(OC[C@@]67CCCN6[C@H](COC(C(F)(F)F)(C(F)(F)F)C(F)(F)F)CC7)nc5c3F)N3C[C@@]5(F)CC[C@](F)(N5)[C@H]3CCC4)c12 [Example 4-28, 5-ethynyl-6-fluoro-4-((6aR,7R,10S)-1,7,10-trifluoro-13-(((3S,7aS)-3-(((1,1,1,3,3,3-hexafluoro-2-(trifluoromethyl)propan-2-yl)oxy)methyl)tetrahydro-1H-pyrrolizin-7a(5H)-yl)methoxy)-5,6,6a,7,8,9,10,11-octahydro-4H-3,11a,12,14,15-pentaaza-7,10-methanocyclohepta[4,5]cycloocta[1,2,3-de]naphthalen-2-yl)naphthalen-2-amine]
- IC50 (GDP-loaded KRAS-G12C): 7.3 nM
- EC50 [2, 7]: 7.5 nM
- EC50 [3, 8]: 5.6 nM
- EC50 [4, 9]: 117 nM
- IC50 [5]: 4.98 nM
- IC50 (GDP-loaded KRAS-G12V): 44.8 nM
- IC50 (GDP-loaded KRAS-G12D): 59.4 nM

SMILES: C#Cc1c(F)ccc2cccc(-c3nc4c5c(nc(OCC67CCCN6CCC7)nc5c3F)N3C[C@@]5(F)CC[C@](F)(N5)[C@H]3CCC4)c12 [Example 4-29, (6aR,7R,10S)-2-(8-ethynyl-7-fluoronaphthalen-1-yl)-1,7,10-trifluoro-13-((tetrahydro-1H-pyrrolizin-7a(5H)-yl)methoxy)-5,6,6a,7,8,9,10,11-octahydro-4H-3,11a,12,14,15-pentaaza-7,10-methanocyclohepta[4,5]cycloocta[1,2,3-de]naphthalene]
- IC50 (GDP-loaded KRAS-G12C): 8.68 nM
- EC50 [2, 7]: 6.37 nM
- EC50 [3, 8]: 12.8 nM
- EC50 [4, 9]: 305 nM
- IC50 [5]: 5.99 nM
- IC50 (GDP-loaded KRAS-G12V): 24.8 nM
- IC50 (GDP-loaded KRAS-G12D): 38.1 nM

SMILES: C[C@H]1Cc2nc(-c3cc(N)cc4ccc(F)c(F)c34)c(F)c3nc(OCC45CCCN4CCC5)nc(c23)N2C[C@@]3(F)CC[C@](F)(N3)[C@H]12 [Example 5-1, 5,6-difluoro-4-((5S,5aS,6R,9S)-1,6,9-trifluoro-5-methyl-12-((tetrahydro-1H-pyrrolizin-7a(5H)-yl)methoxy)-4,5,5a,6,7,8,9,10-octahydro-3,10a,11,13,14-pentaaza-6,9-methanonaphtho[1,8-ab]heptalen-2-yl)naphthalen-2-amine]
- IC50 (GDP-loaded KRAS-G12C): 1.71 nM
- EC50 [2, 7]: 2.2 nM
- EC50 [3, 8]: 2.34 nM
- EC50 [4, 9]: 62.5 nM
- IC50 [5]: 0.271 nM
- IC50 (GDP-loaded KRAS-G12V): 7.42 nM
- IC50 (GDP-loaded KRAS-G12D): 16 nM

Source: US20250042922A1, “KRAS MODULATING COMPOUNDS” (priority 2023, published 2025)
